Data set [1] concerns the target T1, NgcE^Sco (SCO6005) (Streptomyces coelicolor, UniProt O50499).
T1 construct: without putative signal peptide (29 N-terminal residues); from E. coli
T1 sequence (O50499 30-469): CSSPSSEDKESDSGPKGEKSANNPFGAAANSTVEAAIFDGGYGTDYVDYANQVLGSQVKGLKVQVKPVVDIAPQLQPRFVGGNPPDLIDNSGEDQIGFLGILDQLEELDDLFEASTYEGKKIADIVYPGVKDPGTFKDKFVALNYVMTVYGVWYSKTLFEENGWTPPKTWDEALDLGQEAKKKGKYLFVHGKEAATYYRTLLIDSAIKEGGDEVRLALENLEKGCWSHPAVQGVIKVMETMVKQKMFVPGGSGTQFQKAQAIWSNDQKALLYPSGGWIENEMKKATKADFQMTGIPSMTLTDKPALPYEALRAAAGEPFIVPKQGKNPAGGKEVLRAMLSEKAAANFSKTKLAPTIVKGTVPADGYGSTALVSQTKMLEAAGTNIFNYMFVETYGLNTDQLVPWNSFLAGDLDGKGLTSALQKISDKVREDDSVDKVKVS
The data set is described as follows: isothermal titration calorimetry. Format: binding. The following applies: 20 mM Tris/HCl pH 8.0, 30°C; single-site fit. An excerpt: isothermal titration calorimetry on NgcE^Sco (SCO6005)
(In ITC the heat of successive injections is recorded.)

Data set [2] addresses T1, NgcE^Sco (SCO6005). Kind of data set: intrinsic protein fluorescence titration. Type of data set: binding.
A further data set addresses T2, DasR (DasR-6His) (Streptomyces coelicolor, UniProt Q9K492).
T2 construct: DasR-6His from pFT240, expressed in E. coli BL21(DE3), Ni-agarose purified
The data set is described as follows: EMSA, inhibition of DasR binding to dre^ngcE DNA. The following applies: Cy5-labeled dre^ngcE DNA probe; allosteric. In general terms: Mobility shift assays separate free from complexed probe on a gel.

Data set [3] has as its target T3, NgcE of S. olivaceoviridis (Streptomyces olivaceoviridis, UniProt Q8RJV0).
T3 construct: N-terminally His-tagged, from E. coli carrying pQEH301
T3 sequence (Q8RJV0 47-489): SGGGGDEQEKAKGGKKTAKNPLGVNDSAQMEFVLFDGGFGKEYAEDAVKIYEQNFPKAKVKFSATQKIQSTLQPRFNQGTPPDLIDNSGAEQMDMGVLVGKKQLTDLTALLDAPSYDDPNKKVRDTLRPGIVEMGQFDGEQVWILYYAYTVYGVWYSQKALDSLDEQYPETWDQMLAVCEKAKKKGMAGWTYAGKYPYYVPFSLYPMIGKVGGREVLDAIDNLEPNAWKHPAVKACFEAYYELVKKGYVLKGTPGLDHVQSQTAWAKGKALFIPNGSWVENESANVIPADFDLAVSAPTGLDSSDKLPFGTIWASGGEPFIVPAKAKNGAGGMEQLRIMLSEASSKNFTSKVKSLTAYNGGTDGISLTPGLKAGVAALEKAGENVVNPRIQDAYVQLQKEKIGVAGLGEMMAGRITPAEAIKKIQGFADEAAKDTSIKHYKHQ
The data set is described as follows: intrinsic protein fluorescence titration. Format: binding. Conditions: fluorescence increase.

The target in a further data set is T4, DasR-6His (Streptomyces coelicolor A3(2), UniProt Q9K492 1-254).
T4 sequence: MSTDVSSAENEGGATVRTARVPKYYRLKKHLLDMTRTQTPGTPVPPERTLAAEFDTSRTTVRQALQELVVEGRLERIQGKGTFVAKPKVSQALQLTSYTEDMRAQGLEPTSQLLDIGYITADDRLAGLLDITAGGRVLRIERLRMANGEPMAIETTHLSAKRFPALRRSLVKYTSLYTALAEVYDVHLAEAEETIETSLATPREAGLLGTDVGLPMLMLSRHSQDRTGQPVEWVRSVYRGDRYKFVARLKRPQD
The data set is described as follows: EMSA; EMSA: Cy5 probe ~0.1 mM and DasR-6His ~1 mM (so in the source); probably uM) in 50 uL, 1% agarose gel; buffer, salt, pH and temperature not given. The following applies: protein: recombinant; tags: C-terminal 6xHis; chain copies: 2; label: Cy5 on the printed strand; blunt.

One may read the Kd as the constant that tells how readily two partners part at equilibrium. Read a low Kd as higher affinity.

Regarding `CC(=O)N[C@H]1[C@H](O[C@H]2[C@H](O)[C@@H](NC(C)=O)C(O)O[C@@H]2CO)O[C@H](CO)[C@@H](O)[C@@H]1O` (stereo partly shown) [(GlcNAc)2], the Kd at NgcE^Sco (SCO6005) [1] amounted to 1530 nM. As to `CC(=O)N[C@H]1C(O)O[C@H](CO)[C@H](O)[C@@H]1O` (stereo partly shown) [GalNAc], at NgcE^Sco (SCO6005) [2], binding was put at a Kd of 12000 nM.

As for `N[C@H]1C(O)O[C@H](COP(=O)(O)O)[C@@H](O)[C@@H]1O` (stereo partly shown) [GlcN-6P], the “EMSA, inhibition of DasR binding to dre^ngcE DNA” value at DasR (DasR-6His) was “binding of DasR to the dre^ngcE-containing probe was inhibited by GlcNAc-6P and GlcN-6P”.

Consider `CC(=O)N[C@H]1C(O)O[C@H](COP(=O)(O)O)[C@@H](O)[C@@H]1O` (stereo partly shown) [GlcNAc-6P], for which the “EMSA, inhibition of DasR binding to dre^ngcE DNA” value at DasR (DasR-6His) is “binding of DasR to the dre^ngcE-containing probe was inhibited by GlcNAc-6P and GlcN-6P”. Regarding `CC(=O)N[C@H]1C(O)O[C@H](CO)[C@@H](O)[C@@H]1O` (stereo partly shown) [GlcNAc], the figures for the Kd (in data set [3]; at NgcE^Sco (SCO6005) [1]) were 85 nM and 1150 nM, respectively. The molecule `CC(=O)N[C@H]1C(O)O[C@H](CO)[C@@H](O)[C@@H]1O[C@H](C)C(=O)O` (stereo partly shown) [MurNAc] had a Kd at NgcE^Sco (SCO6005) [2] of 25000 nM.

B1: dredasA (dsDNA)
DNA 1: CAAGCTCCCCGTACTGGTCTACACCATTGGTCCAGGTCCC
DNA 2: GGGACCTGGACCAATGGTGTAGACCAGTACGGGGAGCTTG
For B1, in the data set with DasR-6His, the binding result is “binds”.

B2: drenagKA (dsDNA)
DNA 1: CGTACACCCGGGAGAGGTCTAGTCCACTGCGGTGGTGTAG
DNA 2: CTACACCACCGCAGTGGACTAGACCTCTCCCGGGTGTACG
Consider B2, for which the binding result with DasR-6His is recorded as “binds”.

B3: drengcE (dsDNA)
DNA 1: CCGCCAAGCGAAAGTGGACTATACCTGTCGGCACTCCGGG
DNA 2: CCCGGAGTGCCGACAGGTATAGTCCACTTTCGCTTGGCGG
For B3, the binding result with DasR-6His is listed as “binds”.
